Literature values in patent US20090176850A1, “Novel 2-Amino-Imidazole-4-One Compounds And Their Use In The Manufacture Of A Medicament To Be Used In The Treatment Of Cognitive Impairment, Alzheimer's Disease, Neurodegeneration And Dementia” (ASTRAZENECA AB, priority 2005, published 2009).
Non-standard residues stand in square brackets, D forms with d. Residues, ends and D or L forms follow the SMILES beside them. *: point of attachment. Sta = CC(C)C[C@H](N)[C@@H](O)CC(=O)O; Isovaleryl = CC(C)CC(=O)*

Biological target: BACE (Homo sapiens, UniProt P56817)
Settings: Vassar et al, 1999

Chain of BACE (P56817 46-501): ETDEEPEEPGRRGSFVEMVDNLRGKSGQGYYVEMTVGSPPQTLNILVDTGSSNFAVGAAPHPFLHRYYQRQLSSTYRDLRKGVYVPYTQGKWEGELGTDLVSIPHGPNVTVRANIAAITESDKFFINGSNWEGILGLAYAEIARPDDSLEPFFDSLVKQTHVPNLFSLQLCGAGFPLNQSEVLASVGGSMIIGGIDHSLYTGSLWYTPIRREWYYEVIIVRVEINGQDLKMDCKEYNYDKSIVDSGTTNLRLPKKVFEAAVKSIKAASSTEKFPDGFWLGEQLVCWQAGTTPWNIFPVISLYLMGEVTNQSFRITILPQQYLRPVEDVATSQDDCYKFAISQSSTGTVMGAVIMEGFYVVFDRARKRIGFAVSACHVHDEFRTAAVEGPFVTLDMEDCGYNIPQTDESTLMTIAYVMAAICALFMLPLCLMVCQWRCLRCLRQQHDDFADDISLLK

## CC(C)CC(=O)N[C@H](C(=O)N[C@H](C(=O)N[C@@H](CC(C)C)[C@@H](O)CC(=O)N[C@@H](C)C(=O)N[C@@H](CC(C)C)[C@@H](O)CC(=O)O)C(C)C)C(C)C [pepstatin] (Isovaleryl-VV[Sta]A[Sta]-OH)
  inhibition of BACE: inhibited weakly
